US20250215460A1, “MICROBIAL […] THE CONVERSION OF CARBOHYDRATES” (Ohio State Innovation Foundation, priority 2022, published 2025)

Test system: C. tyrobutyricum
Assay: Batch fermentation in stirred-tank bioreactor on glucose and xylose with acetate and benzyl viologen added
Type: cell-based, Clostridium tyrobutyricum
Details: in the presence of 3.75 μM BV (0.30 g/g before BV addition); pH 6.0, ~18 g/L acetate added at ~48 h
Method: Batch fermentation in a stirred-tank bioreactor with C. tyrobutyricum grown on glucose and xylose at pH 6.0 was studied with the addition of ˜18 g/L acetate and 3.75 μM benzyl viologen (BV) at ˜48 h. With BV and acetate addition, C. tyrobutyricum converted glucose, xylose, and acetate simultaneously to butyrate as the sole fermentation product with close to 100% purity at an overall yield of ˜0.48 g/g substrate. Almost all glucose and acetate (both produced before BV addition and externally added) were consumed to produce butyrate, reaching a high concentration of ˜46 g/L. Butyric acid yield from sugars increased from 0.30 g/g before BV addition to 0.52 g/g from both sugars and acetate consumed in the presence of 3.75 μM BV. The theoretical yield of butyric acid from glucose in the fermentation is 0.8 mol/mol (0.39 g/g) when acetate (0.4 mol/mol) and carbon dioxide (2 mol/mol) are also produced as co-products. In contrast, butyrate formation from acetate has a theoretical yield of 0.73 g/g (0.5 mol/mol), which is 87.2% higher than that from glucose, because no substrate carbon is lost in carbon dioxide. In addition to the higher butyrate yield, butyrate was produced as the only main product in the fermentation with a high acid purity of 98.3%, which was much higher than ˜80% in typical butyric acid fermentation. […]

## c1ccc(C[n+]2ccc(-c3cc[n+](Cc4ccccc4)cc3)cc2)cc1 [BV, benzyl viologen]
  Butyric acid yield from both sugars and acetate consumed: 0.52 g/g
